According to publication PMC6044914 (ACS Omega, 2017):
≈ marks a conversion by molar mass, not a printed value. Where two headings read alike, the source gives them in different places.

Legend:
[1] = test system: M. tuberculosis H37Rv (London Pride); experiment: microbe, parasite or virus in culture; assay type: cell-based, Mycobacterium tuberculosis; conditions: for activity against M. tuberculosis (in words): SAR discussion
Vero cells = conditions: for cytotoxicity (in words): Vero cells
[2] = Mycobacterium tuberculosis, H37RV, 120 h
[3] = Mycobacterium tuberculosis, H37RV

Molecule: 3-Isobutoxy-N-(5-nitrothiazol-2-yl)picolinamide [compound 22]
- MIC ([1]; Table 1, […], average ± SD of two independent experiments): 16 ± 6.4 µM
- TC50 (Vero cells): 8.9 µM

Molecule: Nc1ccccc1C(=O)Nc1ncc([N+](=O)[O-])s1 [compound 5, 2-Amino-N-(5-nitrothiazol-2-yl)benzamide]
- MIC [1, 2]: > 20 µM
- activity against M. tuberculosis (in words) [1]: no activity
- TC50 (Vero cells; African green monkey): 31 µM

Molecule: CNc1ccccc1C(=O)Nc1ncc([N+](=O)[O-])s1 [compound 6, 2-(Methylamino)-N-(5-nitrothiazol-2-yl)benzamide]
- MIC [1, 2]: > 20 µM
- activity against M. tuberculosis (in words) [1]: no activity
- TC50 (Vero cells; African green monkey): 15 µM

Molecule: CC(=O)Nc1ccccc1C(=O)Nc1ncc([N+](=O)[O-])s1 [compound 7, 2-Acetamido-N-(5-nitrothiazol-2-yl)benzamide]
- MIC [1, 2]: > 20 µM
- activity against M. tuberculosis (in words) [1]: no activity

Molecule: CCC(C)(C)C(=O)Nc1ccccc1C(=O)Nc1ncc([N+](=O)[O-])s1 [compound 9, 2-(2,2-Dimethylbutanamido)-N-(5-nitrothiazol-2-yl)benzamide]
- MIC [1, 2]: 17 ± 4.9 µM (≈ 6.16 µg/mL)
- activity against M. tuberculosis (in words) [1]: showed activity
- TC50 (Vero cells; African green monkey): 4.1 µM

Molecule: CC(C)(C)OC(=O)Nc1ccccc1C(=O)Nc1ncc([N+](=O)[O-])s1 [compound 10, tert-Butyl (2-((5-nitrothiazol-2-yl)carbamoyl)phenyl)carbamate]
- MIC [1, 2]: 17 ± 4.2 µM (≈ 6.19 µg/mL)
- activity against M. tuberculosis (in words) [1]: showed activity
- TC50 (Vero cells; African green monkey): 6.6 µM

Molecule: O=C(Nc1ncc([N+](=O)[O-])s1)c1cc(F)ccc1O [compound 11, 5-Fluoro-2-hydroxy-N-(5-nitrothiazol-2-yl)benzamide]
- MIC [1, 2]: > 20 µM
- activity against M. tuberculosis (in words) [1]: no activity

Molecule: CCC(C)(C)C(=O)Oc1cc(N2CCOCC2)ccc1C(=O)Nc1ncc([N+](=O)[O-])s1 [compound 14, 5-Morpholino-2-((5-nitrothiazol-2-yl)carbamoyl)phenyl 2,2-dimethylbutanoate]
- MIC [1, 2]: > 20 µM
- activity against M. tuberculosis (in words) [1]: no activity
- TC50 (Vero cells; African green monkey): 12 µM

Molecule: O=C(Nc1ncc([N+](=O)[O-])s1)c1cc(O)ccc1O [compound 15, 2,5-Dihydroxy-N-(5-nitrothiazol-2-yl)benzamide]
- MIC [1, 2]: > 20 µM
- activity against M. tuberculosis (in words) [1]: no activity
- TC50 (Vero cells; African green monkey): 13 µM

Molecule: O=C(O)c1ccccc1C(=O)Nc1ncc([N+](=O)[O-])s1 [compound 16, 2-((5-Nitrothiazol-2-yl)carbamoyl)benzoic Acid]
- MIC [1, 2]: > 20 µM
- activity against M. tuberculosis (in words) [1]: no activity
- TC50 (Vero cells; African green monkey): >50 µM

Molecule: COc1ccccc1C(=O)Nc1ncc([N+](=O)[O-])s1 [compound 17, 2-Methoxy-N-(5-nitrothiazol-2-yl)benzamide]
- MIC [1, 2]: > 20 µM
- activity against M. tuberculosis (in words) [1]: no activity

Molecule: CCC(C)(C)C(=O)Nc1cccnc1C(=O)Nc1ncc([N+](=O)[O-])s1 [compound 18, 3-(2,2-Dimethylbutanamido)-N-(5-nitrothiazol-2-yl)picolinamide]
- improvement in activity relative to 1 [1]: 10 fold
- MIC [1, 2]: 1.4 ± 0.6 µM (≈ 0.509 µg/mL)
- activity against M. tuberculosis (in words) [1]: showed activity
- TC50 (Vero cells; African green monkey): 0.9 µM

Molecule: COc1ccnc(C(=O)Nc2ncc([N+](=O)[O-])s2)c1 [compound 20, 4-Methoxy-N-(5-nitrothiazol-2-yl)picolinamide]
- MIC [1, 2]: 5.6 ± 4.2 µM (≈ 1.57 µg/mL)
- TC50 (Vero cells; African green monkey): 11 µM

Molecule: COc1ccc(C(=O)Nc2ncc([N+](=O)[O-])s2)nc1 [compound 21, 5-Methoxy-N-(5-nitrothiazol-2-yl)picolinamide]
- MIC [1, 2]: 5.5 ± 2.1 µM (≈ 1.54 µg/mL)
- TC50 (Vero cells; African green monkey): 4.3 µM

Molecule: CCC(C)(C)C(=O)Oc1cccnc1C(=O)Nc1ncc([N+](=O)[O-])s1 [compound 23, 2-((5-Nitrothiazol-2-yl)carbamoyl)pyridin-3-yl 2,2-dimethylbutanoate]
- MIC [1, 2]: 12 ± 1 µM (≈ 4.37 µg/mL)
- TC50 (Vero cells; African green monkey): 21 µM

Molecule: COc1cccnc1C(=O)Nc1ncc([N+](=O)[O-])s1 [compound 24, 3-Methoxy-N-(5-nitrothiazol-2-yl)picolinamide]
- MIC [1, 2]: > 20 µM
- activity against M. tuberculosis (in words) [1]: inactive
- TC50 (Vero cells; African green monkey): 37 µM

Molecule: O=C(Nc1ncc([N+](=O)[O-])s1)c1ccc(N2CCOCC2)cn1 [compound 25, 5-Morpholino-N-(5-nitrothiazol-2-yl)picolinamide]
- MIC [1, 2]: > 20 µM
- activity against M. tuberculosis (in words) [1]: inactive
- TC50 (Vero cells; African green monkey): 11 µM

Molecule: CC(=O)Nc1ncc([N+](=O)[O-])s1 [compound 26, N-(5-Nitrothiazol-2-yl)acetamide]
- MIC [1, 3]: > 20 µM
- activity against M. tuberculosis (in words) [1]: loss of activity

Molecule: O=C(Nc1ncc([N+](=O)[O-])s1)C1CC1 [compound 27, N-(5-nitrothiazol-2-yl)cyclopropanecarboxamide]
- MIC [1, 3]: > 20 µM
- activity against M. tuberculosis (in words) [1]: loss of activity

Molecule: O=C(Nc1ncc([N+](=O)[O-])s1)C1CCCCC1O (stereo not shown) [compound 29, 2-Hydroxy-N-(5-nitrothiazol-2-yl)cyclohexane-1-carboxamide]
- MIC [1, 3]: > 20 µM

Molecule: O=C(Nc1ncc([N+](=O)[O-])s1)c1ccncn1 [compound 30, N-(5-Nitrothiazol-2-yl)pyrimidine-4-carboxamide]
- MIC [1, 3]: > 20 µM
- activity against M. tuberculosis (in words) [1]: loss of activity

Molecule: O=C(Nc1ncc([N+](=O)[O-])s1)N1CCCCC1 [compound 31, N-(5-Nitrothiazol-2-yl)piperidine-1-carboxamide]
- MIC [1, 3]: > 20 µM

Molecule: O=C(Nc1ncc([N+](=O)[O-])s1)c1cnccn1 [compound 32, N-(5-Nitrothiazol-2-yl)pyrazine-2-carboxamide]
- MIC [1, 3]: > 20 µM

Molecule: O=C(Nc1ncc([N+](=O)[O-])s1)c1nccs1 [compound 33, N-(5-Nitrothiazol-2-yl)thiazole-2-carboxamide]
- MIC [1, 3]: > 20 µM

Molecule: O=C(Nc1ncc([N+](=O)[O-])s1)c1cccnc1 [compound 34, N-(5-Nitrothiazol-2-yl)nicotinamide]
- MIC [1, 3]: > 20 µM

Molecule: O=C(Nc1ncc([N+](=O)[O-])s1)c1ccncc1 [compound 35, N-(5-Nitrothiazol-2-yl)isonicotinamide]
- MIC [1, 3]: > 20 µM

Molecule: O=C(Nc1ncc([N+](=O)[O-])s1)NC1CCCCC1 [compound 38, 1-Cyclohexyl-3-(5-nitrothiazol-2-yl)urea]
- MIC [1, 3]: > 20 µM

Molecule: O=C(Nc1ccccn1)Nc1ncc([N+](=O)[O-])s1 [compound 39, 1-(5-Nitrothiazol-2-yl)-3-(pyridin-2-yl)urea]
- MIC [1, 3]: > 20 µM

Molecule: Cn1ccnc1C(=O)Nc1ncc([N+](=O)[O-])s1 [compound 40, 1-Methyl-N-(5-nitrothiazol-2-yl)-1H-imidazole-2-carboxamide]
- MIC [1, 3]: > 20 µM

Molecule: O=C(Nc1ncc([N+](=O)[O-])s1)c1ncco1 [compound 41, N-(5-Nitrothiazol-2-yl)oxazole-2-carboxamide]
- MIC [1, 3]: > 20 µM

Molecule: O=C(Nc1ncc([N+](=O)[O-])s1)c1ccon1 [compound 42, N-(5-Nitrothiazol-2-yl)isoxazole-3-carboxamide]
- MIC [1, 3]: > 20 µM

Molecule: Cc1cnc(C(=O)Nc2ncc([N+](=O)[O-])s2)s1 [compound 43, 5-Methyl-N-(5-nitrothiazol-2-yl)thiazole-2-carboxamide]
- MIC [1, 3]: > 20 µM

Molecule: O=C(Nc1ncc([N+](=O)[O-])s1)c1nc2ccccc2s1 [compound 44, N-(5-Nitrothiazol-2-yl)benzo[d]thiazole-2-carboxamide]
- MIC [1, 3]: > 20 µM

Molecule: CC(=O)Oc1ccccc1C(=O)Nc1nccs1 [compound 45, 2-(Thiazol-2-ylcarbamoyl)phenyl Acetate]
- MIC [1, 3]: > 20 µM
- activity against M. tuberculosis (in words) [1]: eliminated all activity
- TC50 (Vero cells; African green monkey): >50 µM

Molecule: Cc1nc(NC(=O)c2ccccc2O)sc1[N+](=O)[O-] [compound 46, 2-Hydroxy-N-(4-methyl-5-nitrothiazol-2-yl)benzamide]
- MIC [1, 3]: > 20 µM
- activity against M. tuberculosis (in words) [1]: inactive
- TC50 (Vero cells; African green monkey): 5.2 µM

Molecule: Cc1cnc(NC(=O)c2ccccn2)s1 [compound 48, N-(5-Methylthiazol-2-yl)picolinamide]
- MIC [1, 3]: > 20 µM
- activity against M. tuberculosis (in words) [1]: inactive
- TC50 (Vero cells; African green monkey): 12 µM

Molecule: O=C(Nc1ncc(C(F)(F)F)s1)c1ccccn1 [compound 49, N-(5-(Trifluoromethyl)thiazol-2-yl)picolinamide]
- MIC [1, 3]: 5.3 ± 0.2 µM (≈ 1.45 µg/mL)
- activity against M. tuberculosis (in words) [1]: some activity
- TC50 (Vero cells; African green monkey): 0.8 µM
- cytotoxicity (in words) (Vero cells): cytotoxicity

Molecule: Cc1nc(NC(=O)c2ccccn2)sc1[N+](=O)[O-] [compound 50, N-(4-Methyl-5-nitrothiazol-2-yl)picolinamide]
- MIC [1, 3]: 1.5 ± 0.6 µM (≈ 0.396 µg/mL)
- activity against M. tuberculosis (in words) [1]: some activity
- TC50 (Vero cells; African green monkey): 4.2 µM
- cytotoxicity (in words) (Vero cells): cytotoxicity

Molecule: O=C(Nc1ncc(C(=O)O)s1)c1ccccn1 [compound 51, 2-(Picolinamido)thiazole-5-carboxylic Acid]
- MIC [1, 3]: > 20 µM
- activity against M. tuberculosis (in words) [1]: inactive
- TC50 (Vero cells; African green monkey): >50 µM

Molecule: O=C(Nc1nc(-c2ccccn2)cs1)c1ccccn1 [compound 52, N-(4-(Pyridin-2-yl)thiazol-2-yl)picolinamide]
- MIC [1, 3]: > 20 µM
- activity against M. tuberculosis (in words) [1]: inactive
- TC50 (Vero cells; African green monkey): 15 µM

Molecule: O=C(Nc1nc(-c2ccccn2)c([N+](=O)[O-])s1)c1ccccn1 [compound 53, N-(5-Nitro-4-(pyridin-2-yl)thiazol-2-yl)picolinamide]
- MIC [1, 3]: 8.5 ± 2.1 µM (≈ 2.78 µg/mL)
- activity against M. tuberculosis (in words) [1]: some activity
- TC50 (Vero cells; African green monkey): 6.4 µM
- cytotoxicity (in words) (Vero cells): cytotoxicity

Molecule: O=[N+]([O-])c1cnc(NS(=O)(=O)c2ccccc2O)s1 [compound 54, 2-Hydroxy-N-(5-nitrothiazol-2-yl)benzenesulfonamide]
- activity against M. tuberculosis (in words) [1]: inactive

Molecule: O=[N+]([O-])c1cnc(NCc2ccccc2O)s1 [compound 55, 2-(((5-Nitrothiazol-2-yl)amino)methyl)phenol]
- activity against M. tuberculosis (in words) [1]: inactive

Molecule: O=[N+]([O-])c1cnc(NCc2ccccn2)s1 [compound 56, 5-Nitro-N-(pyridin-2-ylmethyl)thiazol-2-amine]
- activity against M. tuberculosis (in words) [1]: inactive
